Measured values: patent US11339147B2, “Lactam compound as FXR receptor agonist” (CSPC ZHONGQI PHARMACEUTICAL TECHNOLOGY (SHIJIAZHUANG) CO., …, priority 2017, dated 2022)
pEC50: −log10 of the molar value. Read-outs that look alike come from different tables or passages of the source.

Target: T1, glutathione-S-transferase-labeled FXR human protein (Homo sapiens, UniProt Q96RI1)
T1 construct: purchased Invitrogen
T1 sequence (Q96RI1 1-486): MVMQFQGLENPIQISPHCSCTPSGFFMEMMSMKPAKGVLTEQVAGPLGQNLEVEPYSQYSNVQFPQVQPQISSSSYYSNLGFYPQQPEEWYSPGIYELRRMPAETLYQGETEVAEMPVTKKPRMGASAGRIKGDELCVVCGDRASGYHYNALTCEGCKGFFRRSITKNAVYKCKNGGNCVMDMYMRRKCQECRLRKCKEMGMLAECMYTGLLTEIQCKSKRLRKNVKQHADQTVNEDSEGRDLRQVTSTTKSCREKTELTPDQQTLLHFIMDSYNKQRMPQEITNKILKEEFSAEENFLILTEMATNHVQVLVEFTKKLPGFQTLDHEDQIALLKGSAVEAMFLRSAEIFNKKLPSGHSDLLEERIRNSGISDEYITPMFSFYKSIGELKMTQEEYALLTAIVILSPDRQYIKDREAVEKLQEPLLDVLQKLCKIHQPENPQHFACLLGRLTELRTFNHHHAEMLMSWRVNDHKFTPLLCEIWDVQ
Assay: FXR biochemical experiment (alphascreen, coactivator recruitment)
Conditions: for pEC50: alphascreen, activation of FXR binding reaction with steroid receptor coactivator, read-out: FXR enzyme activity EC50; for Emax: read-out: FXR enzyme activity Efficacy (activation efficacy percent)
Protocol: FXR Biochemical Experiment
To test the effect of the compound on the activation of the FXR binding reaction by a Homogenous Proximity Luminescent Amplified Assay (alphascreen).
1. Protein: glutathione-S-transferase-labeled FXR human protein (Invitrogen)
2. Coactivator: biotin-labeled steroid receptor coactivator (Anaspec)
3. Detection reagent: Homogenous Proximity Luminescent Amplified Assay (alphascreen) detection kit (PerkinElmer)
1. Dilution of compounds: The test compound was prepared as a 40 μM DMSO solution, which was then diluted 3-fold to 10 concentration points. The reference compound was prepared as a 400 μM DMSO solution, and then was 1.5-fold diluted to 10 concentration points. The diluted DMSO solution was added to the micro-wells of a 384-well plate at a volume of 150 nl per well.
2. Glutathione-S-transferase-labeled FXR human protein and biotin-labeled steroid receptor coactivator were prepared to a mixed solution at a concentration of 0.4 nM and 30 nM, respectively. The mixed solution was added to the micro-wells of the 384-well plate at a volume of 15 μL per well, and incubated for 1 hour at room temperature.
3. […] The experiment process was protected from light. It was incubated for 1 hour at room temperature.
4. […] The experiment process was protected from light. It was incubated for 1 hour at room temperature.
5. EC50 test: Envision was used to excite at 680 nm and the […] signal at 520-620 nm was read.
6. Data analysis: Data analysis was conducted using Prism 5.0 to calculate the EC50 value of the activation effect of the compound.

[1] = highest signal relative to reference compound chenodeoxycholic acid (Examples 1-30)
[2] = highest signal relative to reference compound obeticholic acid (Examples 31-47)

Row | SMILES | pEC50 | FXR enzyme activity Efficacy (activation efficacy percent) [1] | Emax [1] | Emax [2]
1 | O=C(O)C1CCC(CN2C(=O)C3(CC3)c3cc(OCc4c(-c5c(Cl)cccc5Cl)noc4C4CC4)ccc32)CC1 (single isomer, unassigned) [Compound 20] | 6.08 | 169% |  | 
2 | O=C(O)C1CCC(CN2C(=O)C3(CC3)c3cc(OCc4c(-c5c(Cl)cccc5Cl)noc4C4CC4)ccc32)CC1 (single isomer, unassigned) [Compound 21] | 6.02 | 96% |  | 
3 | O=C(O)c1cccc(CN2C(=O)C3(CC3)c3cc(OCc4c(-c5c(Cl)cccc5Cl)noc4C4CC4)ccc32)c1 [Compound 1] | 6.70 |  | 156% | 
4 | O=C(O)c1ccc(CN2C(=O)C3(CC3)c3cc(OCc4c(-c5c(Cl)cccc5Cl)noc4C4CC4)ccc32)cc1 [Compound 2] | 6.54 |  | 155% | 
5 | O=C(O)c1ccc(N2C(=O)C3(CC3)c3cc(OCc4c(-c5c(Cl)cccc5Cl)noc4C4CC4)ccc32)nc1 [Compound 3] | 6.74 |  | 165% | 
6 | Cn1cc(C(=O)O)c2ccc(N3C(=O)C4(CC4)c4cc(OCc5c(-c6c(Cl)cccc6Cl)noc5C5CC5)ccc43)cc21 [Compound 4] | 6.70 |  | 256% | 
7 | O=C(O)c1ccc(N2C(=O)C3(CC3)c3cc(OCc4c(-c5c(Cl)cccc5Cl)noc4C4CC4)ccc32)s1 [Compound 5] | 6.82 |  | 242% | 
8 | O=C(O)c1ccc(N2C(=O)C3(CC3)c3cc(OCc4c(-c5c(Cl)cccc5Cl)noc4C4CC4)ccc32)cc1 [Compound 6] | 7.00 |  | 169% | 
9 | O=C(O)c1cccc(N2C(=O)C3(CC3)c3cc(OCc4c(-c5c(Cl)cccc5Cl)noc4C4CC4)ccc32)c1 [Compound 7] | 6.62 |  | 144% | 
10 | Cc1sc(N2C(=O)C3(CC3)c3cc(OCc4c(-c5c(Cl)cccc5Cl)noc4C4CC4)ccc32)nc1C(=O)O [Compound 8] | 6.09 |  | 35% | 
11 | COc1cc(N2C(=O)C3(CC3)c3cc(OCc4c(-c5c(Cl)cccc5Cl)noc4C4CC4)ccc32)ccc1C(=O)O [Compound 9] | 5.81 |  | 229% | 
12 | O=C(O)c1ccc(N2C(=O)C3(CC3)c3cc(OCc4c(-c5c(Cl)cccc5Cl)noc4C4CC4)ccc32)cc1F [Compound 10] | 5.99 |  | 312% | 
13 | O=C(O)c1cccc(CN2C(=O)C3(CCCC3)c3cc(OCc4c(-c5c(Cl)cccc5Cl)noc4C4CC4)ccc32)c1 [Compound 11] | 6.24 |  | 82% | 
14 | O=C(O)c1ccc(N2C(=O)C3(CC3)c3ccc(OCc4c(-c5c(Cl)cccc5Cl)noc4C4CC4)cc32)cc1 [Compound 12] | 5.75 |  | 33% | 
15 | CC1(C)C(=O)N(c2ccc(C(=O)O)cc2)c2ccc(OCc3c(-c4c(Cl)cccc4Cl)noc3C3CC3)cc21 [Compound 13] | 7.05 |  | 163% | 
16 | CC1(C)C(=O)N(Cc2cccc(C(=O)O)c2)c2ccc(OCc3c(-c4c(Cl)cccc4Cl)noc3C3CC3)cc21 [Compound 14] | 6.70 |  | 136% | 
17 | CC1(C)C(=O)N(c2cccc(C(=O)O)c2)c2ccc(OCc3c(-c4c(Cl)cccc4Cl)noc3C3CC3)cc21 [Compound 15] | 6.64 |  | 152% | 
18 | O=C(O)CCCN1C(=O)C2(CC2)c2cc(OCc3c(-c4c(Cl)cccc4Cl)noc3C3CC3)ccc21 [Compound 16] | 5.47 |  | 151% | 
19 | O=C(O)CCN1C(=O)C2(CC2)c2cc(OCc3c(-c4c(Cl)cccc4Cl)noc3C3CC3)ccc21 [Compound 17] | 5.73 |  | 169% | 
20 | O=C(O)C1CC=C(N2C(=O)C3(CC3)c3cc(OCc4c(-c5c(Cl)cccc5Cl)noc4C4CC4)ccc32)CC1 (stereo not drawn) [Compound 18] | 6.18 |  | 142% | 
21 | O=C(O)C12CC(CN3C(=O)C4(CC4)c4cc(OCc5c(-c6c(Cl)cccc6Cl)noc5C5CC5)ccc43)(C1)C2 [Compound 19] | 5.59 |  | 95% | 
22 | O=C(O)c1ccc(CN2C(=O)C3(CC3)c3cc(OCc4c(-c5c(Cl)cccc5Cl)noc4C4CC4)ccc32)nc1 [Compound 22] | 6.18 |  | 200% | 
23 | O=C(O)c1csc(N2C(=O)C3(CC3)c3cc(OCc4c(-c5c(Cl)cccc5Cl)noc4C4CC4)ccc32)c1 [Compound 23] | 6.51 |  | 120% | 

Row | SMILES | pEC50 | FXR enzyme activity Efficacy (activation efficacy percent) [1] | Emax [1] | Emax [2]
24 | O=C(O)c1cncc(N2C(=O)C3(CC3)c3cc(OCc4c(-c5c(Cl)cccc5Cl)noc4C4CC4)ccc32)c1 [Compound 24] | 6.21 |  | 124% | 
25 | O=C(O)c1ccc(N2C(=O)C3(CC3)c3cc(OCc4c(-c5c(Cl)cccc5Cl)noc4C4CC4)ccc32)cc1Cl [Compound 25] | 6.39 |  | 130% | 
26 | O=C(O)c1ccccc1N1C(=O)C2(CC2)c2cc(OCc3c(-c4c(Cl)cccc4Cl)noc3C3CC3)ccc21 [Compound 26] | 5.19 |  | 21% | 
27 | O=C(O)c1cc(F)cc(N2C(=O)C3(CC3)c3cc(OCc4c(-c5c(Cl)cccc5Cl)noc4C4CC4)ccc32)c1 [Compound 27] | 6.39 |  | 218% | 
28 | O=C(O)c1ccc(N2C(=O)C3(CC3)c3cc(OCc4c(-c5ccccc5OC(F)(F)F)noc4C4CC4)ccc32)cc1 [Compound 28] | 6.19 |  | 186% | 
29 | O=C(O)c1ccc(N2C(=O)C3(CC3)c3cc(OCc4c(-c5c(Cl)cncc5Cl)noc4C4CC4)ccc32)cc1 [Compound 29] | 6.25 |  | 211% | 
30 | O=C(O)c1ccc(N2C(=O)C3(CC3)c3cc(OCc4c(-c5c(Cl)cccc5Cl)noc4C4CC4)cnc32)cc1 [Compound 30] | 5.82 |  | 228% | 
31 | Cn1cc(C(=O)O)c2ccc(N3C(=O)CCc4cc(OCc5c(-c6c(Cl)cccc6Cl)noc5C5CC5)ccc43)cc21 [Compound 31] | 7.37 |  |  | 115%
32 | O=C(O)c1ccc(N2C(=O)CCc3cc(OCc4c(-c5c(Cl)cccc5Cl)noc4C4CC4)ccc32)cc1 [Compound 33] | 6.84 |  |  | 127%
33 | O=C(O)c1ccc(N2C(=O)CCc3cc(OCc4c(-c5c(Cl)cccc5Cl)noc4C4CC4)ccc32)c(F)c1 [Compound 34] | 6.90 |  |  | 140%
34 | O=C(O)c1cnc(N2C(=O)CCc3cc(OCc4c(-c5c(Cl)cccc5Cl)noc4C4CC4)ccc32)c(F)c1 [Compound 35] | 8.05 |  |  | 161%
35 | O=C(O)c1ccc(N2C(=O)CCc3cc(OCc4c(-c5c(Cl)cccc5Cl)noc4C4CC4)ccc32)c(Cl)c1 [Compound 36] | 7.16 |  |  | 135%
36 | O=C(O)c1cnc(N2C(=O)CCc3cc(OCc4c(-c5c(Cl)cccc5Cl)noc4C4CC4)ccc32)s1 [Compound 38] | 6.85 |  |  | 118%
37 | N#Cc1cc(C(=O)O)ccc1N1C(=O)CCc2cc(OCc3c(-c4c(Cl)cccc4Cl)noc3C3CC3)ccc21 [Compound 39] | 7.46 |  |  | 140%
38 | O=C(O)c1ccc(N2C(=O)CCc3cc(OCc4c(-c5c(Cl)cccc5Cl)noc4C4CC4)ccc32)nc1 [Compound 40] | 7.24 |  |  | 117%
39 | O=C(O)c1cccc(N2C(=O)CCc3cc(OCc4c(-c5c(Cl)cccc5Cl)noc4C4CC4)ccc32)c1 [Compound 41] | 6.35 |  |  | 95%
40 | O=C(O)c1cc(N2C(=O)CCc3cc(OCc4c(-c5c(Cl)cccc5Cl)noc4C4CC4)ccc32)ccc1F [Compound 42] | 6.72 |  |  | 137%
41 | Cc1cc(C(=O)O)cnc1N1C(=O)CCc2cc(OCc3c(-c4c(Cl)cccc4Cl)noc3C3CC3)ccc21 [Compound 43] | 7.70 |  |  | 153%
42 | COc1cc(C(=O)O)ccc1N1C(=O)CCc2cc(OCc3c(-c4c(Cl)cccc4Cl)noc3C3CC3)ccc21 [Compound 44] | 7.24 |  |  | 117%
43 | O=C(O)c1csc(N2C(=O)CCc3cc(OCc4c(-c5c(Cl)cccc5Cl)noc4C4CC4)ccc32)c1 [Compound 45] | 6.97 |  |  | 117%
44 | O=C(O)c1ccc(N2C(=O)CCc3cc(OCc4c(-c5c(Cl)cccc5Cl)noc4C4CC4)ccc32)s1 [Compound 46] | 7.08 |  |  | 126%
45 | O=C(O)c1ccc(N2C(=O)CCc3cc(OCc4c(-c5c(Cl)cccc5Cl)noc4C4CC4)ccc32)cc1O [Compound 47] | 7.70 |  |  | 153%
